The record followed here is patent publication US20230159527A1, “COMPOUNDS AS BCL-2 INHIBITORS” (Fochon Pharmaceuticals, Ltd., priority 2020, published 2023).

What all share (assay type): cell-based
Assay [1] has as its system RS4;11-BCL-2 G101V cells. Put plainly: Cell proliferation assay, engineered RS4;11 cells stably overexpressing BCL-2 G101V (MTS, 168 h). As to conditions: read-out: RS4, 11 BCL2- G101V. As to the method:
(§1) MTS testing kit was purchased from Promega (Madison, Wis., USA). The RPMI-1640, Fetal bovine serum and Penicillin-Streptomycin were purchased from BI (Biological Industries, Beit Haemek, Israel). Puromycin was purchased from Beyotime (shanghai, China). Dimethyl sulfoxide (DMSO) was purchased from Sigma (St. Louis, Mo., USA). RS4;1l-BCL-2 G101V and RS4;11-BCL-2 F104L cells were cultured in RPM11640 supplemented with 1 ug/mL puromycin, 100 U/mL Penicillin-Streptomycin and 10% FBS.
(§2) To investigate whether a compound is able to inhibit the activity of BCL-2 mutation in cells, a mechanism-based assay using engineered cell lines stably overexpressing BCL-2 mutation ([…] and […]) was developed. In this assay, the inhibition of BCL-2 mutation was reflected by the inhibition of cell proliferation of RS4;11-BCL-2 G101V and RS4;11-BCL-2 F104L cells. Cells were plated into 96-well plates at optimized cell density (RS4;11-BCL-2 G101V: 5000 cells/well; RS4;11-BCL-2 F104L: 5000 cells/well). Plates were incubated at 37° C., with 5% CO2 for 4 h. Compounds were serially diluted to the final-concentrations of 10000, 3333.3, 1111.1, 370.4, 123.5, 41.2, 13.7, 4.6 and 1.4 nM and added to the plates. Plates were incubated at 37° C., with 5% CO2 for 168 h. 20 μl MTS was added into each well and the plates were incubated at 37° C., with 5% CO2 exactly for 2 h. The absorbance was measured by a microplate reader at 490 nm. IC50 values were calculated using GraphPad Prism 5.0 software.

Assay [2] has as its system Toledo cells. Put plainly: Cell proliferation assay, Toledo cells (MTS, 72 h). The following applies: Toledo cells, MTS, read-out: Toledo IC50. The essentials: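 Toledo cells (30000/well, RPMI-1640 with 10% FBS) were preincubated for 4 h. They were then exposed to nine compound concentrations from 10000 to 1.5 nM for 72 h at 37 °C, 5% CO2. MTS was added for 2 h and absorbance read at 490 nm to give IC50.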

In assay [3] the test system is RS4;11-BCL-2 F104L cells. Put plainly: Cell proliferation assay, engineered RS4;11 cells stably overexpressing BCL-2 F104L (MTS, 168 h). As to conditions: Homo sapiens, read-out: RS4, 11 BCL2-F104L. As to the method: as §1, §2

Like-named read-outs stand apart in the source and are kept apart here.

`CCOc1nc2[nH]ccc2cc1Oc1cc(N2CCC3(CC2)CN([C@H]2CCC[C@H]2c2ccccc2C(C)C)C3)ccc1C(=O)NS(=O)(=O)c1cnc(NC[C@H]2CC[C@](C)(O)CC2)c([N+](=O)[O-])c1` (single isomer, unassigned) [Example A-161, 2-((6-ethoxy-1H-pyrrolo[2,3-b]pyridin-5-yl)oxy)-N-((6-(((1r,4r)-4-hydroxy-4-methylcyclohexyl)methyl)amino)-5-nitropyridin-3-yl)sulfonyl)-4-(2-((1S,2S or 1R,2R)-2-(2-isopropylphenyl)cyclo-pentyl)-2,7-diazaspiro[3.5]nonan-7-yl) benzamide]: the IC50 was found to be 2 nM in assay [1] (Homo sapiens, RS4-11, 168 h) and 1 nM in assay [2] (Homo sapiens).
The corresponding values for `CC(C)c1ccccc1[C@@H]1CN(S(C)(=O)=O)CCN1C1CC2(CCN(c3ccc(C(=O)NS(=O)(=O)c4cc5c(c([N+](=O)[O-])c4)N[C@@H]([C@H]4CC[C@](C)(O)CC4)CO5)c(Oc4cnc5[nH]cc(F)c5c4)c3)CC2)C1` (single isomer, unassigned) [Example D-80, 2-((3-fluoro-1H-pyrrolo[2,3-b]pyridin-5-yl)oxy)-N-(((S)-3-((1r,4S)-4-hydroxy-4-methylcyclohexyl)-5-nitro-3,4-dihydro-2H-benzo[b] [1,4]oxazin-7-yl)sulfonyl)-4-(2-((R or S)-2-(2-isopropylphenyl)-4-(methylsulfonyl)piperazin-1-yl)-7-azaspiro[3.5]nonan-7-yl)benzamide] are 8 nM and 1 nM.
On to `CC(C)c1ccccc1[C@@H]1CCCN1C1CC2(CCN(c3ccc(C(=O)NS(=O)(=O)c4cc5c(c([N+](=O)[O-])c4)N[C@@H]([C@H]4CC[C@](C)(O)CC4)CO5)c(Oc4cc5cc[nH]c5nc4OC4CN(C)C4)c3)CC2)C1` (single isomer, unassigned) [Example D-201, N-(((S)-3-((1r,4S)-4-hydroxy-4-methylcyclohexyl)-5-nitro-3,4-dihydro-2H-benzo[b][1,4]oxazin-7-yl)sulfonyl)-4-(2-((R or S)-2-(2-isopropylphenyl)pyrrolidin-1-yl)-7-azaspiro[3.5]nonan-7-yl)-2-((6-((1-methylazetidin-3-yl)oxy)-1H-pyrrolo[2,3-b]pyridin-5-yl)oxy)benzamide], for which the IC50 in assay [1] (Homo sapiens, RS4-11, 168 h) worked out at 1 nM; in assay [2] (Homo sapiens), 1 nM.
Take `COCCOc1nc2[nH]ccc2cc1Oc1cc(N2CCC3(CC2)CN([C@H]2CCC[C@H]2c2ccccc2C(C)C)C3)ccc1C(=O)NS(=O)(=O)c1cc2c(c([N+](=O)[O-])c1)N[C@@H]([C@H]1CC[C@](C)(O)CC1)CO2` (single isomer, unassigned) [Example D-75b, N-(((S)-3-((1r,4S)-4-hydroxy-4-methylcyclohexyl)-5-nitro-3,4-dihydro-2H-benzo[b][1,4]oxazin-7-yl)sulfonyl)-4-(2-((1S,2S or 1R,2R)-2-(2-isopropylphenyl)cyclopentyl)-2,7-diazaspiro[3.5]nonan-7-yl)-2-((6-(2-methoxyethoxy)-1H-pyrrolo[2,3-b]pyridin-5-yl)oxy) benzamide]: the IC50 in assay [1] (Homo sapiens, RS4-11, 168 h) is 16 nM; in assay [2] (Homo sapiens) it was 1 nM.
As for `CC(C)c1ccccc1[C@@H]1CCC[C@@H]1N1CC2(CCN(c3ccc(C(=O)NS(=O)(=O)c4cc5c(c([N+](=O)[O-])c4)N[C@@H]([C@H]4CC[C@](C)(O)CC4)CO5)c(Oc4cnc5[nH]cc(F)c5c4)c3)CC2)C1` (single isomer, unassigned) [Example D-28, 2-((3-fluoro-1H-pyrrolo[2,3-b]pyridin-5-yl)oxy)-N-(((S)-3-((1r,4S)-4-hydroxy-4-methylcyclohexyl)-5-nitro-3,4-dihydro-2H-benzo[b] [1,4]oxazin-7-yl)sulfonyl)-4-(2-((1S,2S or 1R,2R)-2-(2-isopropylphenyl)cyclopentyl)-2,7-diazaspiro[3.5]nonan-7-yl)benzamide], the IC50 in assay [1] stood at 13 nM; in assay [2] (Homo sapiens) it was 1 nM.
Regarding `CC(C)c1ccccc1[C@@H]1CCC[C@@H]1N1CC2(CCN(c3ccc(C(=O)NS(=O)(=O)c4ccc(NC[C@H]5CC[C@](C)(O)CC5)c([N+](=O)[O-])c4)c(Oc4cnc5[nH]cc(F)c5c4)c3)CC2)C1` (single isomer, unassigned) [Example D-34a, 2-((3-fluoro-1H-pyrrolo[2,3-b]pyridin-5-yl)oxy)-N-((4-((1r,4r)-4-hydroxy-4-methylcyclohexyl)methyl)amino)-3-nitrophenyl) sulfonyl)-4-(2-((1S,2S or 1R,2R)-2-(2-isopropylphenyl)cyclopentyl)-2,7-diazaspiro[3.5]nonan-7-yl)benzamide], the IC50 was found to be 18 nM in assay [1] and 1 nM in assay [2] (Homo sapiens).
`CO[C@@H](C)COc1nc2[nH]ccc2cc1Oc1cc(N2CCC3(CC2)CC(N2CCC[C@H]2c2ccccc2C(C)C)C3)ccc1C(=O)NS(=O)(=O)c1cc2c(c([N+](=O)[O-])c1)N[C@@H]([C@H]1CC[C@](C)(O)CC1)CO2` (single isomer, unassigned) [Example D-202, N-(((S)-3-((1r,4S)-4-hydroxy-4-methylcyclohexyl)-5-nitro-3,4-dihydro-2H-benzo[b][1,4]oxazin-7-yl)sulfonyl)-4-(2-((R or S)-2-(2-isopropylphenyl)pyrrolidin-1-yl)-7-azaspiro[3.5]nonan-7-yl)-2-((6-((S)-2-methoxypropoxy)-1H-pyrrolo[2,3-b]pyridin-5-yl)oxy)benzamide]: the IC50 in assay [1] (Homo sapiens, RS4-11, 168 h) was 2 nM; in assay [2] (Homo sapiens), 1 nM.
As to `CCOc1nc2[nH]ccc2cc1Oc1cc(N2CCC3(CC2)CN([C@H]2CCC[C@H]2c2ccccc2C(C)C)C3)ccc1C(=O)NS(=O)(=O)c1ccc(NC[C@H]2CC[C@](C)(O)CC2)c([N+](=O)[O-])c1` (single isomer, unassigned) [Example D-92, 2-((6-ethoxy-1H-pyrrolo[2,3-b]pyridin-5-yl)oxy)-N-((4-((((1r,4r)-4-hydroxy-4-methylcyclohexyl)methyl)amino)-3-nitrophenyl)sulfonyl)-4-(2-((1S,2S or 1R,2R)-2-(2-isopropylphenyl)cyclopentyl)-2,7-diazaspiro[3.5]nonan-7-yl)benzamide], the IC50 in assay [1] (Homo sapiens, RS4-11, 168 h) was 1 nM; in assay [2] (Homo sapiens), 1 nM.
Regarding `CC(C)c1ccccc1[C@@H]1CCC[C@@H]1N1CC2(CCN(c3ccc(C(=O)NS(=O)(=O)c4cc5c(c([N+](=O)[O-])c4)N[C@@H]([C@H]4CC[C@](C)(O)CC4)CO5)c(Oc4cnc5[nH]cc(F)c5c4)c3)CC2)C1` (single isomer, unassigned) [Example D-28a, 2-((3-fluoro-1H-pyrrolo[2,3-b]pyridin-5-yl)oxy)-N-(((S)-3-((1r,4S)-4-hydroxy-4-methylcyclohexyl)-5-nitro-3,4-dihydro-2H-benzo[b] [1,4]oxazin-7-yl)sulfonyl)-4-(2-((1S,2S or 1R,2R)-2-(2-isopropylphenyl)cyclopentyl)-2,7-diazaspiro[3.5]nonan-7-yl)benzamide], the IC50 in assay [1] and in assay [2] was 1 nM throughout.
As to `CCOc1nc2[nH]cc(F)c2cc1Oc1cc(N2CCC3(CC2)CN([C@H]2CCC[C@H]2c2ccccc2C(C)C)C3)ccc1C(=O)NS(=O)(=O)c1ccc(NC[C@H]2CC[C@](C)(O)CC2)c([N+](=O)[O-])c1` (single isomer, unassigned) [Example D-110, 2-((6-ethoxy-3-fluoro-1H-pyrrolo [2,3-b]pyridin-5-yl)oxy)-N-((4-((((1r,4r)-4-hydroxy-4-methylcyclohexyl)methyl)amino)-3-nitrophenyl)sulfonyl)-4-(2-((1S,2S or 1R,2R)-2-(2-isopropylphenyl)cyclopentyl)-2,7-diazaspiro[3.5]nonan-7-yl)benzamide], the values for the IC50 in assay [3] and in assay [2] (Homo sapiens) were 15 nM and 1 nM, respectively.
Regarding `COc1nc2[nH]cc(F)c2cc1Oc1cc(N2CCC3(CC2)CC(N2CCC[C@H]2c2ccccc2C(C)C)C3)ccc1C(=O)NS(=O)(=O)c1cc2c(c([N+](=O)[O-])c1)N[C@@H]([C@H]1CC[C@](C)(O)CC1)CO2` (single isomer, unassigned) [Example D-83, 2-((3-fluoro-6-methoxy-1H-pyrrolo [2,3-b]pyridin-5-yl)oxy)-N-(((S)-3-((1r,4S)-4-hydroxy-4-methylcyclohexyl)-5-nitro-3,4-dihydro-2H-benzo[b][1,4]oxazin-7-yl)sulfonyl)-4-(2-((R or S)-2-(2-isopropylphenyl)pyrrolidin-1-yl)-7-azaspiro[3.5]nonan-7-yl)benzamide], the IC50 amounted to 8 nM in assay [3] and 1 nM in assay [2] (Homo sapiens).
